Laboratory results from patent US10280158B2, “Immune adjustment compound, use thereof and pharmaceutical composition comprising same” (SUZHOU CONNECT BIOPHARMACEUTICALS, LTD., priority 2013, dated 2019).

How the values were obtained:
[1] = system: heart rate and QT interval; test: Telemetry assay of cardiovascular function in conscious beagle dog; format: in vivo; details: within 24 hours after administration
Method: To determine whether Compound 2 has an effect on heart rate and QT interval, the compound was evaluated in a telemetry assay in conscious beagle dog.
An appropriate amount of CMC-Na was prepared as a 0.5% CMC-Na (w/v) solution with sterilized water for injection. The solution was prepared one day before administration.
Solutions of Compound 2 (samples) with the concentration of 2, 6 and 20 mg/mL were prepared one day before administration as follows. An appropriate amount of Compound 2 was added into an appropriate amount of 0.5% CMC-Na solution. The obtained mixture was emulsified and homogenized on an emulsification isotropic machine. Theoretical concentrations of Compound 2 in the prepared sample solutions were 2, 6 and 20 mg/mL.
A total of 8 animals and a Double Latin squared experimental design were used in this experiment. Administration cycles were separated by 3-5 days. One day before each administration cycle, the animals were weighted and fasted overnight. On the day of administration, telemetry system (Implantable physiological signal telemetry system 1, Data Science International Inc., USA) was turned on, test parameters were set, implants were activated and physiological indexes of the animals were recorded. […] Parameters would be analyzed using artificial set after the collection was completed. The data was, firstly, analyzed by PONEMAH Version 4.8 software automatically, and then checked point by point artificially for selected values. […] Time at which values were selected were recorded.
Statistical software SPSS13.0 was used to process data in this experiment. […] Indexes of blood pressure, electrocardiogram, respiration and body temperature were expressed as “mean±standard error”, and then analyzed according to following procedure: firstly, homogeneity test was performed on the data by use of Levene Test, and if the data was uniform ([…]), single-factor variance analysis was performed; and if the result of variance analysis was significant (P≤0.05), Dunnett's multiple comparison was performed on difference between vehicle group and sample group. […]

human S1P3 = human S1P3 (Homo sapiens, UniProt Q99500); test: Internalization effect experiment of S1P3 (CHO-S cells); format: cell-based
Method: CHO—S cells bearing human S1P1 with Myc tag were harvested and then adjusted to a density of one million cells per mL by Dulbecco's modified Eagle's medium (DMEM). […] After incubation, the mixture was centrifuged at 800 RPM for 5 minutes to obtain the cells. The cells were resuspended in FACS buffer (PBS containing 1% BSA), and Myc antibody labelled with fluorescein isothiocyanate (FITC) (from Californian Miltenyi Biotec GmbH, USA) was added in and incubated for 1 hour on ice. The cells were washed, resuspended in pre-cooled FACS buffer and analysed by FACS Calibur flow cytometry.
CHO—S cells expressing human S1P3 were used to perform internalization detection test. Besides cells, experimental method was the same with the method of the internalized detection experiment of S1P1.

Sequence of human S1P3 (Q99500 whole entry): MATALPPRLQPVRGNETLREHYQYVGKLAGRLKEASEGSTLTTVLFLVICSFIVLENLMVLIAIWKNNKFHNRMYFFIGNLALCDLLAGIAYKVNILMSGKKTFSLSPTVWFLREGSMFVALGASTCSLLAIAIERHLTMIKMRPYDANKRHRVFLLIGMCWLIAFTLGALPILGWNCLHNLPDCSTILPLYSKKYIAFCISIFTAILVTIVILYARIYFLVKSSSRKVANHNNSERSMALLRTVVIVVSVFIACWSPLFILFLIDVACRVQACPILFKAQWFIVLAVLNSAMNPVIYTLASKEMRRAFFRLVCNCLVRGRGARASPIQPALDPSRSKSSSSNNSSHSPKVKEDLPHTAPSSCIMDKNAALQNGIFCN

EC50 (human S1P3; CHO-S cells expressing human S1P3, read-out: Receptor Internalization (EC50) S1P3): > 1000 nM
Structure (SMILES): CC(C)Cc1ccc(-c2nc(-c3ccc(CN4CC(C(=O)O)C4)c(F)c3)no2)cc1 [Compound 2, 1-{2-fluoro-4-[5-(4-isobutylphenyl)-1,2,4-oxadiazol-3-yl]-benzyl}-3-azetidine carboxylic acid]
QT interval versus vehicle [1]: no significant difference
QTcF interval versus vehicle [1]: no significant difference
heart rate versus vehicle [1]: no significant difference
internalization activation effect on S1P3 subtype (human S1P3; CHO-S cells expressing human S1P3, in words): no internalization activation effect on S1P3 subtype
